The test system of the assay is BDF1 mice, s.c. Lewis lung carcinoma, T/C %. Nature of the assay: NCI In Vivo Anticancer Drug Screen. Data for tumor model Lewis Lung Carcinoma (subcutaneous) in B6D2F1 (BDF1) mice. Summed up: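 The value reflects a ratio in which the treated cohort's survival time or tumour size is compared against mice receiving only vehicle.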
Setting [1] is: endpoint: median survival time, dose: 50.0 mg/kg/injection, schedule: Q01DX009 (ip), vehicle: saline, higher = longer survival.
The mark [2] stands for this setting: endpoint: mean tumor weight, dose: 25.0 mg/kg/injection, schedule: Q01DX011 (ip), vehicle: saline, higher = larger tumour.
[3] abbreviates: endpoint: mean tumor weight, dose: 50.0 mg/kg/injection, schedule: Q01DX011 (ip), vehicle: saline, higher = larger tumour.
[4] abbreviates: endpoint: mean tumor weight, dose: 100.0 mg/kg/injection, schedule: Q01DX011 (ip), vehicle: saline, higher = larger tumour.

Several values for one entry are separate records, joined by “and”; a condition that tells them apart may be missing. Identical values can stand only once. Inconclusive results are not listed.

As for `[CH3][Sn]([CH3])([CH3])[O]C(=O)CCl`, the T/C is, setting by setting: (endpoint: median survival time, dose: 0.19 mg/kg/injection, schedule: Q01DX009 (ip), vehicle: saline, higher = longer survival) 100 % of control; (endpoint: median survival time, dose: 0.38 mg/kg/injection, schedule: Q01DX009 (ip), vehicle: saline, higher = longer survival) 104 % of control; (endpoint: median survival time, dose: 0.75 mg/kg/injection, schedule: Q01DX009 (ip), vehicle: saline, higher = longer survival) 88 % of control and 97 % of control.
Turning to `CCN=C=NCCCN(C)C`, the T/C runs as follows: (endpoint: median survival time, dose: 10.0 mg/kg/injection, schedule: Q01DX009 (ip), vehicle: saline, higher = longer survival) 106 % of control; (endpoint: median survival time, dose: 20.0 mg/kg/injection, schedule: Q01DX009 (ip), vehicle: saline, higher = longer survival) 107 % of control; (endpoint: median survival time, dose: 40.0 mg/kg/injection, schedule: Q01DX009 (ip), vehicle: saline, higher = longer survival) 93 % of control; (endpoint: median survival time, dose: 80.0 mg/kg/injection, schedule: Q01DX009 (ip), vehicle: saline, higher = longer survival) 96 % of control.
Regarding `CC(C)CCSc1nc(N)nc2nc[nH]c12`, the T/C (endpoint: mean tumor weight, dose: 300.0 mg/kg/injection, schedule: Q01DX011 (ip), vehicle: other, higher = larger tumour) was 59 % of control.
Turning to `CC1OC(OCC2OC(Oc3c(-c4ccc(O)c(O)c4)oc4cc(O)cc(O)c4c3=O)C(O)C(O)C2O)C(O)C(O)C1O` (centres undefined), the T/C (endpoint: mean tumor weight, dose: 62.5 mg/kg/injection, schedule: Q01DX011 (ip), vehicle: saline, higher = larger tumour) was 104 % of control; the T/C (endpoint: mean tumor weight, dose: 125.0 mg/kg/injection, schedule: Q01DX011 (ip), vehicle: saline, higher = larger tumour) was 93 % of control; the T/C (endpoint: mean tumor weight, dose: 250.0 mg/kg/injection, schedule: Q01DX011 (ip), vehicle: saline, higher = larger tumour) is 67 % of control; the T/C (endpoint: mean tumor weight, dose: 500.0 mg/kg/injection, schedule: Q01DX011 (ip), vehicle: saline, higher = larger tumour) was 52 % of control.
Take `C=C(C(=O)O)C(=O)O`: the T/C under setting [1] is 105 % of control; the T/C (endpoint: median survival time, dose: 100.0 mg/kg/injection, schedule: Q01DX009 (ip), vehicle: saline, higher = longer survival) is 105 % of control; the T/C (endpoint: median survival time, dose: 200.0 mg/kg/injection, schedule: Q01DX009 (ip), vehicle: saline, higher = longer survival) was 103 % of control.
For `O=C(/C=C/c1ccc(O)c(O)c1)c1ccc(O)c(O)c1O`, the T/C is, setting by setting: (endpoint: mean tumor weight, dose: 12.5 mg/kg/injection, schedule: Q01DX011 (ip), vehicle: saline, higher = larger tumour) 57 % of control; under setting [2], 89 % of control; under setting [3], 64 % of control; under setting [4], 59 % of control.
With `CN(Cc1cnc2nc(N)nc(N)c2n1)c1c(Cl)cc(C(=O)NC(CCC(=O)O)C(=O)O)cc1Cl` (centres undefined), the T/C by setting is: (endpoint: median survival time, dose: 90.0 mg/kg/injection, schedule: Q01DX009 (ip), vehicle: sodium bicarbonate, higher = longer survival) 110 % of control; (endpoint: median survival time, dose: 560.0 mg/kg/injection, schedule: Q04DX003 (ip), vehicle: sodium bicarbonate, higher = longer survival) 112 % of control; (endpoint: median survival time, dose: 626.0 mg/kg/injection, schedule: Q01DX001 (ip), vehicle: sodium bicarbonate, higher = longer survival) 116 % of control; (endpoint: median survival time, dose: 840.0 mg/kg/injection, schedule: Q04DX003 (ip), vehicle: sodium bicarbonate, higher = longer survival) 108 % of control; (endpoint: median survival time, dose: 933.0 mg/kg/injection, schedule: Q01DX001 (ip), vehicle: sodium bicarbonate, higher = longer survival) 92 % of control; (endpoint: median survival time, dose: 1400.0 mg/kg/injection, schedule: Q01DX001 (ip), vehicle: sodium bicarbonate, higher = longer survival) 100 % of control.
Turning to `CCCCCC(CN(C)C)C(O)/C=C/c1ccccc1Cl` (centres undefined), the T/C is, setting by setting: (endpoint: median survival time, dose: 3.12 mg/kg/injection, schedule: Q01DX009 (ip), vehicle: saline, higher = longer survival) 99 % of control; (endpoint: median survival time, dose: 6.25 mg/kg/injection, schedule: Q01DX009 (ip), vehicle: saline, higher = longer survival) 95 % of control; (endpoint: median survival time, dose: 12.5 mg/kg/injection, schedule: Q01DX009 (ip), vehicle: saline, higher = longer survival) 92 % of control; (endpoint: median survival time, dose: 25.0 mg/kg/injection, schedule: Q01DX009 (ip), vehicle: saline, higher = longer survival) 99 % of control; under setting [1], 108 % of control.
`CO[C@H]1C[C@H](O[C@H]2CC[C@]3(C=O)[C@H]4CC[C@]5(C)[C@@H](C6=CC(=O)OC6)CC[C@]5(O)[C@@H]4CC[C@]3(O)C2)O[C@H](C)[C@H]1O`: the T/C runs as follows: (endpoint: mean tumor weight, dose: 2.6 mg/kg/injection, schedule: Q01DX011 (sc), vehicle: steriod suspending solution, higher = larger tumour) 59 % of control; (endpoint: mean tumor weight, dose: 4.0 mg/kg/injection, schedule: Q01DX011 (sc), vehicle: steriod suspending solution, higher = larger tumour) 78 % of control.
Turning to `COC(=O)C1=C(C(=O)OC)C2CC3C4CC=C5CC(OC(C)=O)CCC5(C)C4CCC3(C)C2=C(OC(C)=O)C1` (centres undefined), the T/C was 105 % of control (endpoint: mean tumor weight, dose: 62.5 mg/kg/injection, schedule: Q01DX011 (sc), vehicle: saline, higher = larger tumour); 99 % of control (endpoint: mean tumor weight, dose: 125.0 mg/kg/injection, schedule: Q01DX011 (sc), vehicle: saline, higher = larger tumour); 97 % of control (endpoint: mean tumor weight, dose: 250.0 mg/kg/injection, schedule: Q01DX011 (sc), vehicle: saline, higher = larger tumour).
On to `COc1cc(NS(C)(=O)=O)ccc1Nc1c2ccc(Cl)cc2nc2c(OC)cccc12`, for which the T/C (endpoint: median survival time, dose: 2.3 mg/kg/injection, schedule: Q01DX009 (ip), vehicle: other, higher = longer survival) is 118 % of control.
As to `COc1ccc(CN(CCOC(=O)c2ccc(OC)cc2)CCN(CCOC(=O)c2ccc(OC)cc2)Cc2ccc(OC)cc2)cc1`, the T/C is 100 % of control (endpoint: median survival time, dose: 25.0 mg/kg/injection, schedule: Q01DX009 (ip), vehicle: other, higher = longer survival); 98 % of control (endpoint: median survival time, dose: 50.0 mg/kg/injection, schedule: Q01DX009 (ip), vehicle: other, higher = longer survival); 93 % of control (endpoint: median survival time, dose: 100.0 mg/kg/injection, schedule: Q01DX009 (ip), vehicle: other, higher = longer survival); 100 % of control (endpoint: median survival time, dose: 200.0 mg/kg/injection, schedule: Q01DX009 (ip), vehicle: other, higher = longer survival).
In the case of `CCCCn1cnc2c(SC)ncnc21`, the T/C (endpoint: median survival time, dose: 25.0 mg/kg/injection, schedule: Q01DX009 (ip), vehicle: saline with Tween-80, higher = longer survival) was 89 % of control; the T/C (endpoint: median survival time, dose: 50.0 mg/kg/injection, schedule: Q01DX009 (ip), vehicle: saline with Tween-80, higher = longer survival) is 94 % of control; the T/C (endpoint: median survival time, dose: 100.0 mg/kg/injection, schedule: Q01DX009 (ip), vehicle: saline with Tween-80, higher = longer survival) is 94 % of control.
Consider `C[C@]12CCC(=O)C=C1CC[C@@H]1[C@@H]2[C@@H](O)C[C@@]2(C)[C@H]1CC[C@]2(O)C(=O)COC(=O)CCC(=O)O`, for which the T/C reads like this: (endpoint: mean tumor weight, dose: 87.5 mg/kg/injection, schedule: Q01DX011 (sc), vehicle: steriod suspending solution, higher = larger tumour) 76 % of control; (endpoint: mean tumor weight, dose: 175.0 mg/kg/injection, schedule: Q01DX011 (sc), vehicle: steriod suspending solution, higher = larger tumour) 79 % of control; (endpoint: mean tumor weight, dose: 350.0 mg/kg/injection, schedule: Q01DX011 (sc), vehicle: steriod suspending solution, higher = larger tumour) 66 % of control; (endpoint: mean tumor weight, dose: 500.0 mg/kg/injection, schedule: Q01DX011 (sc), vehicle: steriod suspending solution, higher = larger tumour) 26 % of control; (endpoint: mean tumor weight, dose: 700.0 mg/kg/injection, schedule: Q01DX011 (sc), vehicle: steriod suspending solution, higher = larger tumour) 72 % of control.
Consider `O=C(Nc1ccc(C2=NCCN2)cc1)c1ccc(C(=O)Nc2ccc(C3=NCCN3)cc2)c(Cl)c1`, for which the T/C by setting is: (endpoint: mean tumor weight, dose: 5.0 mg/kg/injection, schedule: Q01DX011 (ip), vehicle: carboxymethylcellulose (CMC), higher = larger tumour) 73 % of control; (endpoint: mean tumor weight, dose: 10.0 mg/kg/injection, schedule: Q01DX011 (ip), vehicle: carboxymethylcellulose (CMC), higher = larger tumour) 51 % of control; (endpoint: mean tumor weight, dose: 20.0 mg/kg/injection, schedule: Q01DX011 (ip), vehicle: carboxymethylcellulose (CMC), higher = larger tumour) 81 % of control.
Turning to `CC(=O)NCCSC(=O)C(=O)SCCNC(C)=O`, the T/C is 95 % of control under setting [2], 106 % of control under setting [3] and 67 % of control under setting [4].

These data come from PubChem BioAssay AID270 (DTP/NCI, 2004).
